Results: PubChem BioAssay AID1963873 (Molecular Pharmacology Branch, DTP, NCI, 2024)
pIC50: −log10 of the molar value.

System: 276233-004-R-J1-PDC KRAS spheroids with HUVEC/MSC, viability
Experiment: Anticancer human tumor 276233-004-R-J1-PDC patient-derived colon adenocarcinoma cell line growth inhibition [KRAS2]
Settings: for pIC50: curve of first compound; for viability, T/C: stronger effect = lower value
Procedure, shortened: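 Combination screen of spheroid viability in tumor-cell co-cultures with endothelial (HUVEC) and mesenchymal stem cell stroma. Each agent was tested in half-log dilutions, topping at clinical Cmax or at 10 microM without a known Cmax.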

[1] = second compound 0.1 µM, first compound 0.0316 µM
[2] = second compound 0.1 µM, first compound 0.1 µM
[3] = second compound 0.1 µM, first compound 0.316 µM
[4] = second compound 0.1 µM, first compound 1 µM
[5] = second compound 0.1 µM, first compound 3.16 µM
[6] = second compound 0.1 µM, first compound 10 µM
[7] = second compound 0.316 µM, first compound 0.0316 µM
[8] = second compound 0.316 µM, first compound 0.1 µM
[9] = second compound 0.316 µM, first compound 0.316 µM
[10] = second compound 0.316 µM, first compound 1 µM
[11] = second compound 0.316 µM, first compound 3.16 µM
[12] = second compound 0.316 µM, first compound 10 µM
[13] = second compound 1 µM, first compound 0.0316 µM
[14] = second compound 1 µM, first compound 0.1 µM
[15] = second compound 1 µM, first compound 0.316 µM
[16] = second compound 1 µM, first compound 1 µM
[17] = second compound 1 µM, first compound 3.16 µM
[18] = second compound 1 µM, first compound 10 µM
[19] = second compound 3.16 µM, first compound 0.0316 µM
[20] = second compound 3.16 µM, first compound 0.1 µM
[21] = second compound 3.16 µM, first compound 0.316 µM
[22] = second compound 3.16 µM, first compound 1 µM
[23] = second compound 3.16 µM, first compound 3.16 µM
[24] = second compound 3.16 µM, first compound 10 µM
[25] = second compound 10 µM, first compound 0.0316 µM
[26] = second compound 10 µM, first compound 0.1 µM
[27] = second compound 10 µM, first compound 0.316 µM
[28] = second compound 10 µM, first compound 1 µM
[29] = second compound 10 µM, first compound 3.16 µM
[30] = second compound 10 µM, first compound 10 µM
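Further: cells exposed to agents for seven days before viability read.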
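Wherever viability, T/C is given: 100% = DMSO vehicle control wells and lower values mean fewer viable cells.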

## COC(=O)c1ccc2c(C(=Nc3ccc(N(C)C(=O)CN4CCN(C)CC4)cc3)c3ccccc3)c(O)[nH]c2c1 + CC1OCC2(CCN(c3cnc(Sc4ccnc(N)c4Cl)c(N)n3)CC2)C1N
Second compound 0.1 µM
  pIC50: < 5.00
Second compound 0.316 µM
  pIC50: < 5.00
Second compound 1 µM
  pIC50: 5.93
Second compound 3.16 µM
  pIC50: 7.48
Second compound 10 µM
  pIC50: > 7.50
[1]
  viability, T/C: 87.3%
[2]
  viability, T/C: 73.7%
[3]
  viability, T/C: 68.5%
[4]
  viability, T/C: 64.6%
[5]
  viability, T/C: 65.6%
[6]
  viability, T/C: 56.2%
[7]
  viability, T/C: 80%
[8]
  viability, T/C: 63.8%
[9]
  viability, T/C: 59.2%
[10]
  viability, T/C: 64.7%
[11]
  viability, T/C: 46.1%
[12]
  viability, T/C: 70.7%
[13]
  viability, T/C: 67.8%
[14]
  viability, T/C: 61.1%
[15]
  viability, T/C: 54.3%
[16]
  viability, T/C: 55.1%
[17]
  viability, T/C: 42.3%
[18]
  viability, T/C: 42.1%
[19]
  viability, T/C: 49.8%
[20]
  viability, T/C: 47.6%
[21]
  viability, T/C: 40.6%
[22]
  viability, T/C: 41.1%
[23]
  viability, T/C: 40%
[24]
  viability, T/C: 37.3%
[25]
  viability, T/C: 44.9%
[26]
  viability, T/C: 49.5%
[27]
  viability, T/C: 42.6%
[28]
  viability, T/C: 48%
[29]
  viability, T/C: 36.3%
[30]
  viability, T/C: 37.9%

## COc1cc(Nc2ncc3c(n2)-c2ccc(Cl)cc2C(c2c(F)cccc2OC)=NC3)ccc1C(=O)O + CC1OCC2(CCN(c3cnc(Sc4ccnc(N)c4Cl)c(N)n3)CC2)C1N
Second compound 0.1 µM
  pIC50: < 5.00
Second compound 0.316 µM
  pIC50: < 5.00
Second compound 1 µM
  pIC50: < 5.00
Second compound 3.16 µM
  pIC50: 6.06
Second compound 10 µM
  pIC50: > 7.50
[1]
  viability, T/C: 107%
[2]
  viability, T/C: 85.6%
[3]
  viability, T/C: 86%
[4]
  viability, T/C: 75.6%
[5]
  viability, T/C: 99%
[6]
  viability, T/C: 68.5%
[7]
  viability, T/C: 83.9%
[8]
  viability, T/C: 82.5%
[9]
  viability, T/C: 84.7%
[10]
  viability, T/C: 82.4%
[11]
  viability, T/C: 67.1%
[12]
  viability, T/C: 64%
[13]
  viability, T/C: 75%
[14]
  viability, T/C: 73.8%
[15]
  viability, T/C: 75.2%
[16]
  viability, T/C: 74.9%
[17]
  viability, T/C: 65%
[18]
  viability, T/C: 52.2%
[19]
  viability, T/C: 61%
[20]
  viability, T/C: 51.1%
[21]
  viability, T/C: 51.3%
[22]
  viability, T/C: 55.2%
[23]
  viability, T/C: 44.4%
[24]
  viability, T/C: 45.2%
[25]
  viability, T/C: 46.5%
[26]
  viability, T/C: 49.2%
[27]
  viability, T/C: 41.9%
[28]
  viability, T/C: 42%
[29]
  viability, T/C: 54%
[30]
  viability, T/C: 48%

## COc1cc2nccc(Oc3ccc(NC(=O)C4(C(=O)Nc5ccc(F)cc5)CC4)cc3)c2cc1OC + CC1OCC2(CCN(c3cnc(Sc4ccnc(N)c4Cl)c(N)n3)CC2)C1N
Second compound 0.1 µM
  pIC50: < 5.00
Second compound 0.316 µM
  pIC50: < 5.00
Second compound 1 µM
  pIC50: < 5.00
Second compound 3.16 µM
  pIC50: < 5.00
Second compound 10 µM
  pIC50: 5.45
[1]
  viability, T/C: 78.9%
[2]
  viability, T/C: 77.1%
[3]
  viability, T/C: 85.4%
[4]
  viability, T/C: 75.1%
[5]
  viability, T/C: 80%
[6]
  viability, T/C: 77.6%
[7]
  viability, T/C: 73.5%
[8]
  viability, T/C: 64.7%
[9]
  viability, T/C: 69.5%
[10]
  viability, T/C: 72.7%
[11]
  viability, T/C: 81.9%
[12]
  viability, T/C: 59.6%
[13]
  viability, T/C: 65%
[14]
  viability, T/C: 67.4%
[15]
  viability, T/C: 60.7%
[16]
  viability, T/C: 75.7%
[17]
  viability, T/C: 70.9%
[18]
  viability, T/C: 52.7%
[19]
  viability, T/C: 55.5%
[20]
  viability, T/C: 67.9%
[21]
  viability, T/C: 55.1%
[22]
  viability, T/C: 61.7%
[23]
  viability, T/C: 72.2%
[24]
  viability, T/C: 44%
[25]
  viability, T/C: 71.8%
[26]
  viability, T/C: 59.7%
[27]
  viability, T/C: 56.7%
[28]
  viability, T/C: 53%
[29]
  viability, T/C: 58.2%
[30]
  viability, T/C: 42.6%
